US12115193B2, “Methods of using RARγ agonists for cancer treatment” (Io Therapeutics, Inc., priority 2021, dated 2024)

What was measured:
[1] = test system: EMT6 cells; test: EMT6 syngeneic mouse model of triple negative breast cancer (Example 3); assay type: in vivo; details: 21 daily oral doses 10 mg/kg; at the end of the study
Method: The RARγ agonists tazarotenic acid and GA2E were evaluated in the EMT6 syngeneic mouse model of breast cancer. 5×10^5 EMT6 cells were injected into the mammary fat pad of immunocompetent female Balb/c mice. When the tumors reached an average volume of 50-150 mm^3, mice were matched by tumor size into control or treatment groups (n=10-11).
The mice were treated with 21 daily oral doses 10 mg/kg of 1 mg/ml tazarotenic acid or GA2E, or vehicle control, starting on Day 0. Tumor volume was measured, and the mice weighed, on days 0, 1, 3, 6, 8, 10, 13, 15, 17, 20, and 21.

[2] = test system: TIL in EMT6 tumors; test: Flow cytometry of excised EMT6 tumors (Example 4); assay type: in vivo, mouse
From the text: At the end of the study of Example 3, the tumors were excised, the cells disaggregated and dispersed without use of proteases, stained with various agents, and subjected to flow cytometry. FIG. 5A-B present the results of the flow cytometry both as a percentage of cells and as the number of cells per tumor. […] Of these live cells, a substantial proportion were leukocytes (FIG. 5A, “CD45” panels). […] The majority of the T cells were CD4+(FIG. 5A, “CD4” panels), expected to be predominantly helper cells. Of the CD4^+ cells, only small proportions were T memory cells (expected to be predominantly TH1 memory cells) based on intracellular staining for IFNγ (FIG. 5B, “TH IFGγ” panels), TH17 cells based in intracellular staining for IL-17 (FIG. 5B, “TH IL17” panels), or Treg cell based on staining for CD25 and FoxP3 (FIG. 5B, “Treg” panels). About 25-30% of the T cells were CD8^+ (FIG. 5B, “CD8 T” panels), expected to be predominantly cytotoxic cells.

[3] = test system: PBMC; test: CMV recall antigen-stimulated PBMC: IFNγ production and CFSE proliferation; assay type: cell-based; details: four days, vs vehicle control; for IFNγ production: 0.1 to 1000 nM; for Proliferation of CD8+ cells (CFSE dilution): increase small
Method: Peripheral blood mononuclear cells (PBMC) from a cytomegalovirus (CMV)-positive donor were labeled with carboxyfluorescein succinimidyl ester (CFSE) and stimulated with CMV recall antigens at […]. The PBMC were then treated with one of three difference RARγ selective agonists or vehicle (DMSO) control and incubated at 37° C., 5% CO2 for four days. Culture supernatant was harvested and assayed for IFNγ production and the PBMC evaluated for proliferation by flow cytometry for CFSE dilution.
CFSE is a fluorescent reactive cell membrane permeable dye. After it is taken up, CFSE covalently modifies proteins and is retained in cells for long periods of time. The CFSE-modified proteins are generally evenly divided between daughter cells at each division so that fluorescent intensity of the cells falls by have at each division. Thus diminution of the dye's fluorescent signal can be used as a measure of proliferation.

[4] = test system: EMT6 cells; test: EMT6 in vitro culture viability, Cell Titer Glo Assay; assay type: cell-based, mouse; details: 5 days; for IC50: Mus musculus, 120 h
Method: EMT6 cells were cultured in vitro for 5 days the presence of a multiple concentrations of the RARγ agonists GA1E, GA2E, and GA3Ep and viability assessed by the Cell Titer Glo Assay® (Promega).

[5] = test system: Lewis lung carcinoma (LLC) cells; test: Lewis lung carcinoma in vitro culture viability, Cell Titer Glo Assay; assay type: cell-based, mouse; details: for IC50: Mus musculus, Lewis lung carcinoma
Method: Lewis lung carcinoma (LLC) cells were cultured in vitro the presence of a multiple concentrations of the RARγ agonists GA1E, GA2E, and GA3Ep and viability assessed by the Cell Titer Glo Assay®.

[6] = target: T1, RARγ (Homo sapiens, UniProt P13631); test: RARγ transactivation assay (luciferase reporter); assay type: cell-based
T1 construct: expression plasmids encoding the full-length receptors RARα and RARγ; expressed in transfected cells
T1 sequence (P13631 1-454): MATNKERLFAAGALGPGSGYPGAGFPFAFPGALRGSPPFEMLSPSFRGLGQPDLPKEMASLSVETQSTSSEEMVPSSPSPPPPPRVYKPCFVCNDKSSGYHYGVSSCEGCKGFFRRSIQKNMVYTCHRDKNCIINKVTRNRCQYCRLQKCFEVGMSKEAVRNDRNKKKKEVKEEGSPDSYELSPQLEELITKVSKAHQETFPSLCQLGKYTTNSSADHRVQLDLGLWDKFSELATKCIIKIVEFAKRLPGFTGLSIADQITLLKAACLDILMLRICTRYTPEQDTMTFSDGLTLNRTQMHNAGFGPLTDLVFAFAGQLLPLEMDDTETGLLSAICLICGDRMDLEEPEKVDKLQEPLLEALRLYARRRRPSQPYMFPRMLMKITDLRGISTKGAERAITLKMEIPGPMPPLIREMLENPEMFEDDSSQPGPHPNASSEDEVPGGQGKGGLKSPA
Method: Transactivation assays were conducted to test the specificity of binding activity of GA1E and GA2E for RARα and RARγ. Retinoic acid receptor transactivation activity and binding efficiencies were determined essentially as described in U.S. Pat. Nos. 5,298,429 and 5,071,773, incorporated by reference herein for all they teach regarding transactivation assays. Transactivation assays employed expression plasmids encoding the full-length receptors RARα and RARγ. Reporter plasmids containing the herpes virus thymidine kinase promoter and the appropriate retinoic acid receptor response element (RAREs) were positioned upstream of an open coding region encoding firefly luciferase.
The ability of GA1E and GA2E to activate RARα and RARγ in a transactivation assay was tested over a concentration range of 0.5 to 625 nM (GA2E) or 0.05 to 3320 nM (GA1E). GA1E induced less than 10% transactivation for RARα across the whole concentration range, but over 50% transactivation for RARγ at concentrations ≥25 nM and over 70% at concentrations 125 nM (FIG. 3A). GA2E induced more than 85% transactivation at all tested concentrations and less than 10% transactivation of RARα at concentrations of ≤25 nM (FIG. 3B).

| transactivation for RARγ ([6]; at concentrations 125 nM) | transactivation for RARγ ([6]; at concentrations ≥25 nM) | Compound | tumor growth inhibition [1] | T cells (anti-CD3) as mean percentage of the leukocytes in the tumor ([2]; 10 mg/kg oral daily, end of study) | proportion of CD8+ T cells that were memory cells (intracellular IFNγ) ([2]; vs vehicle control, did not achieve statistical significance) | IFNγ production [3] | Proliferation of CD8+ cells (CFSE dilution) [3] | effect on viability as concentrations exceeded 10 μM [4] | effect on viability at concentrations below 1 μM [4] | IC50 [4] | effect on viability as concentrations exceeded 10 μM [5] | effect on viability at concentrations below 1 μM [5] | IC50 [5] |
| --- | --- | --- | --- | --- | --- | --- | --- | --- | --- | --- | --- | --- | --- |
|  |  | CC1(C)CCSc2ccc(C#Cc3ccc(C(=O)O)cn3)cc21 [tazarotenic acid, reference compound] | 44% | ~10% | numerically increased | increased IFNγ production substantially | increased |  |  |  |  |  |  |
|  |  | CC1(C)CCC(C)(C)c2cc(C(/C=C/c3ccc(C(=O)O)cc3)=N/O)ccc21 [GA3Ep] |  |  |  | increased IFNγ production substantially | increased | rapidly became toxic | no effect | 101 µM | rapidly became toxic | no effect | 45 µM |
| over 70% | over 50% | CCc1oc2ccc(C(/C=C/c3ccc(C(=O)O)cc3F)=N/O)cc2c1C(C)(C)C [GA1E, 4-((1E,3E)-3-(3-(tert-butyl)-2-ethyl-benzofuran-5-yl)-3-(hydroxyimino)prop-1-en-1-yl)-3-fluorobenzoic acid] |  |  |  |  |  | rapidly became toxic | no effect | 52 µM | rapidly became toxic | no effect | 96 µM |
